{"source": "patent US20160257697A1", "about": "“THIOPHENE-SUBSTITUTED TETRACYCLIC COMPOUNDS AND METHODS OFUSE THEREOF FOR THE TREATMENT OF VIRAL DISEASES” (priority 2013, published 2016)", "test_in_all_cases": "microbe, parasite or virus in culture", "format_in_all_cases": "cell-based, Hepatitis C virus (HCV)", "key": {"HCV replicon 2B": {"test_system": "HCV replicon 2B", "conditions": "Replicon Assay A", "method_in_brief": "(§1)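 HCV replicon RNA levels were quantified by TaqMan RT-PCR after 3-day compound exposure (0.5% DMSO, 5% FBS). Cyclophilin RNA, co-amplified in the same reaction, served as endogenous control; Ct values were converted to RNA amounts using linear regression standard curves.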"}, "HCV replicon 1AY93H": {"test_system": "HCV replicon 1AY93H", "conditions": "Replicon Assay A", "method_in_brief": "as §1"}, "HCV replicon 1A": {"test_system": "HCV replicon 1A", "conditions": "Replicon Assay A", "method_in_brief": "as §1"}, "HCV replicon 1AQ30D": {"test_system": "HCV replicon 1AQ30D", "conditions": "Replicon Assay B", "procedure": "(§2) In an alternate assay (“Replicon Assay B”), 1000 cells were seeded per well in a 384-well collagen coated black plate from Greiner bio-one (Cat #781946) in 5% FBS. Inhibitors of this invention were added at 24 h post-seeding, and the plates were incubated for 3 days. Cells were subsequently lysed with Qiagen lysis buffer (Cat #1062731) to extract the RNA. HCV replicon RNA level was measured by real-time PCR using the RNA-to-CT kit from Applied Biosystem (Cat #4392656) and genotype-specific primers and probes. The amplicon was located within NS5B. […] (SEQ. ID NO. 2); the probe sequence was FAM-labeled […] (SEQ. ID NO. 3).\n(§3) The real-time RT-PCR reactions were run on ABI PRISM 7900HT or Viia7 Sequence Detection System using the following program: 48° C. for 30 minutes, 95° C. for 10 minutes, 40 cycles of 95° C. for 15 sec, 60° C. for 1 minutes.\n(§4) Data for replicons 1A, 1AY93H and 2B were obtained using Replicon Assay A and data for replicons 1AQ30D and 1B were obtained using Replicon Assay B."}, "HCV replicon 1B": {"test_system": "HCV replicon 1B", "conditions": "Replicon Assay B", "procedure": "as §2, §3, §4"}, "[1]": {"conditions": "read-out: 1A Y93H IC50, replicon 1AY93H"}, "[2]": {"conditions": "read-out: 1A Q30D IC50, replicon 1AQ30D"}, "[3]": {"conditions": "read-out: 2B IC50, HCV replicon 2B"}, "[4]": {"conditions": "read-out: 1A Y93H IC50, HCV replicon 1A Y93H"}}, "note": "Read-outs that look alike come from different tables or passages of the source."}
{"compound": "COC(=O)NC(C(=O)N1CCC[C@H]1c1ncc(-c2ccc3c(c2)cc2n3C(c3cc4ccccc4s3)Oc3cc(-c4cnc([C@@H]5CCCN5C(=O)[C@@H](NC(=O)OC)C5CCOCC5)[nH]4)cc(F)c3-2)[nH]1)C(C)(C)F", "note": "(single isomer, unassigned) [Compound 184]", "values": [{"measurement": "IC50", "setting": "HCV replicon 2B; read-out: 2B IC50, replicon 2B", "result": 0.076, "unit": "nM"}, {"measurement": "IC50", "setting": "HCV replicon 1AY93H; [1]", "result": 0.16, "unit": "nM"}, {"measurement": "IC50", "setting": "HCV replicon 1A; replicon 1A", "result": 0.002, "unit": "nM"}, {"measurement": "IC50", "setting": "HCV replicon 1AQ30D; [2]", "result": 0.21, "unit": "nM"}, {"measurement": "IC50", "setting": "HCV replicon 1B; replicon 1B", "result": 0.002, "unit": "nM"}]}
{"compound": "COC(=O)N[C@H](C(=O)N1CCC[C@H]1c1ncc(-c2cc(F)c3c(c2)OC(c2ccc(CC4CC4)s2)n2c-3cc3cc(-c4cnc([C@@H]5CCCN5C(=O)[C@@H](NC(=O)OC)C5CCOCC5)[nH]4)ccc32)[nH]1)C(C)C", "note": "(single isomer, unassigned) [Compound 356]", "values": [{"measurement": "IC50", "setting": "HCV replicon 2B; read-out: 2B IC50, replicon 2B", "result": 0.0175, "unit": "nM"}, {"measurement": "IC50", "setting": "HCV replicon 1AY93H; [1]", "result": 0.0214, "unit": "nM"}, {"measurement": "IC50", "setting": "HCV replicon 1A; Hepatitis C virus, replicon 1A", "result": 0.0025, "unit": "nM"}, {"measurement": "IC50", "setting": "HCV replicon 1AQ30D; [2]", "result": 0.152, "unit": "nM"}, {"measurement": "IC50", "setting": "HCV replicon 1B; Hepatitis C virus, replicon 1B", "result": 0.0025, "unit": "nM"}]}
{"compound": "COC(=O)NC(C(=O)N1CCCC1c1ncc(-c2cc(F)c3c(c2)OC(c2cc4c(s2)CC2(C4)OCCO2)n2c-3cc3cc(-c4cnc(C5CCCN5C(=O)C(NC(=O)OC)C(C)C)[nH]4)ccc32)[nH]1)C(C)C", "note": "(mixture of isomers) [Compound 847]", "values": [{"measurement": "IC50", "setting": "HCV replicon 2B; HCV replicon 2B, read-out: 2B IC50", "result": 0.312, "unit": "nM"}, {"measurement": "IC50", "setting": "HCV replicon 1AY93H; HCV replicon 1A Y93H, read-out: 1A Y93H IC50", "result": 0.214, "unit": "nM"}, {"measurement": "IC50", "setting": "HCV replicon 1A; HCV replicon 1A", "result": 0.0038, "unit": "nM"}, {"measurement": "IC50", "setting": "HCV replicon 1AQ30D; HCV replicon 1A Q30D, read-out: 1A Q30D IC50", "result": 1.76, "unit": "nM"}, {"measurement": "IC50", "setting": "HCV replicon 1B; HCV replicon 1B", "result": 0.005, "unit": "nM"}]}
{"compound": "COC(=O)N[C@H](C(=O)N1CCC[C@H]1c1ncc(-c2cc(C)c3c(c2)OC(c2ccc(C4CC4)s2)n2c-3cc3cc(-c4cnc([C@@H]5C[C@H]6C[C@H]6N5C(=O)[C@@H](NC(=O)OC)C(C)C)[nH]4)ccc32)[nH]1)C(C)C", "note": "(single isomer, unassigned) [Compound 754]", "values": [{"measurement": "IC50", "setting": "HCV replicon 2B; [3]", "result": 0.039, "unit": "nM"}, {"measurement": "IC50", "setting": "HCV replicon 1AY93H; [4]", "result": 0.042, "unit": "nM"}, {"measurement": "IC50", "setting": "HCV replicon 1A; Hepatitis C virus, HCV replicon 1A", "result": 0.0024, "unit": "nM"}, {"measurement": "IC50", "setting": "HCV replicon 1AQ30D; read-out: 1A Q30D IC50, HCV replicon 1A Q30D", "result": 0.433, "unit": "nM"}, {"measurement": "IC50", "setting": "HCV replicon 1B; Hepatitis C virus, HCV replicon 1B", "result": 0.0026, "unit": "nM"}]}
{"compound": "COCC(C)(C)c1ccc(C2Oc3cc(-c4cnc([C@@H]5CCCN5C(=O)[C@@H](NC(=O)OC)C(C)C)[nH]4)cc(F)c3-c3cc4cc(-c5cnc([C@@H]6CCCN6C(=O)[C@@H](NC(=O)OC)C(C)C)[nH]5)ccc4n32)s1", "note": "(single isomer, unassigned) [Compound 399]", "values": [{"measurement": "IC50", "setting": "HCV replicon 2B; read-out: 2B IC50, replicon 2B", "result": 0.274, "unit": "nM"}, {"measurement": "IC50", "setting": "HCV replicon 1AY93H; [1]", "result": 0.0145, "unit": "nM"}, {"measurement": "IC50", "setting": "HCV replicon 1A; Hepatitis C virus, replicon 1A", "result": 0.0027, "unit": "nM"}, {"measurement": "IC50", "setting": "HCV replicon 1AQ30D; Hepatitis C virus, read-out: 1A Q30D IC50 (nM), replicon 1AQ30D", "result": 0.292, "unit": "nM"}]}
{"compound": "COC(=O)NC(C(=O)N1[C@@H]2C[C@@H]2C[C@H]1c1ncc(-c2ccc3c(c2)cc2n3C(c3ccc(C4CC4)s3)Oc3cc(-c4cnc([C@@H]5CCCN5C(=O)[C@@H](NC(=O)OC)C(C)C)[nH]4)cc(F)c3-2)[nH]1)C1C[C@@H](C)O[C@@H](C)C1", "note": "(single isomer, unassigned) [Compound 271]", "values": [{"measurement": "IC50", "setting": "HCV replicon 2B; read-out: 2B IC50, replicon 2B", "result": 0.013, "unit": "nM"}, {"measurement": "IC50", "setting": "HCV replicon 1AY93H; [1]", "result": 0.004, "unit": "nM"}, {"measurement": "IC50", "setting": "HCV replicon 1A; replicon 1A", "result": 0.0034, "unit": "nM"}, {"measurement": "IC50", "setting": "HCV replicon 1AQ30D; [2]", "result": 0.036, "unit": "nM"}, {"measurement": "IC50", "setting": "HCV replicon 1B; Hepatitis C virus, replicon 1B", "result": 0.0022, "unit": "nM"}]}
{"compound": "COC(=O)NC(C(=O)N1CCC[C@H]1c1ncc(-c2cc(F)c3c(c2)OC(c2ccc(C)s2)n2c-3cc3cc(-c4cnc([C@@H]5CCCN5C(=O)[C@@H](NC(=O)OC)C5CCOCC5)[nH]4)ccc32)[nH]1)C(C)(C)F", "note": "(single isomer, unassigned) [Compound 105]", "values": [{"measurement": "IC50", "setting": "HCV replicon 2B; replicon 2B, read-out: 2B IC50", "result": 0.012, "unit": "nM"}, {"measurement": "IC50", "setting": "HCV replicon 1AY93H; replicon 1AY93H, read-out: 1A Y93H IC50", "result": 0.01, "unit": "nM"}, {"measurement": "IC50", "setting": "HCV replicon 1A; replicon 1A", "result": 0.0015, "unit": "nM"}, {"measurement": "IC50", "setting": "HCV replicon 1AQ30D; replicon 1AQ30D, read-out: 1A Q30D IC50", "result": 0.03, "unit": "nM"}, {"measurement": "IC50", "setting": "HCV replicon 1B; replicon 1B", "result": 0.0029, "unit": "nM"}]}
{"compound": "COC(=O)N[C@H](C(=O)N1CCC[C@H]1c1ncc(-c2cc(C)c3c(c2)OC(c2ccc(C4CC4)s2)n2c-3cc3cc(-c4cnc([C@@H]5CCCN5C(=O)[C@@H](NC(=O)OC)C(C)C)[nH]4)ccc32)[nH]1)C(C)C", "note": "(single isomer, unassigned) [Compound 751]", "values": [{"measurement": "IC50", "setting": "HCV replicon 2B; [3]", "result": 0.027, "unit": "nM"}, {"measurement": "IC50", "setting": "HCV replicon 1AY93H; [4]", "result": 0.51, "unit": "nM"}, {"measurement": "IC50", "setting": "HCV replicon 1A; HCV replicon 1A", "result": 0.0033, "unit": "nM"}, {"measurement": "IC50", "setting": "HCV replicon 1AQ30D; Hepatitis C virus, read-out: 1A Q30D IC50, HCV replicon 1A Q30D", "result": 0.996, "unit": "nM"}, {"measurement": "IC50", "setting": "HCV replicon 1B; HCV replicon 1B", "result": 0.029, "unit": "nM"}]}
{"compound": "COC(=O)NC(C(=O)N1CCC[C@H]1c1ncc(-c2cc(F)c3c(c2)OC(c2ccc(C)s2)n2c-3cc3cc(-c4cnc([C@@H]5CCCN5C(=O)[C@@H](NC(=O)OC)C5CCOCC5)[nH]4)ccc32)[nH]1)C(C)(C)F", "note": "(single isomer, unassigned) [Compound 106]", "values": [{"measurement": "IC50", "setting": "HCV replicon 2B; Hepatitis C virus, read-out: 2B IC50 (nM), replicon 2B", "result": 0.35, "unit": "nM"}, {"measurement": "IC50", "setting": "HCV replicon 1AY93H; Hepatitis C virus, read-out: 1A Y93H IC50 (nM), replicon 1AY93H", "result": 0.16, "unit": "nM"}, {"measurement": "IC50", "setting": "HCV replicon 1A; Hepatitis C virus, replicon 1A", "result": 0.0021, "unit": "nM"}, {"measurement": "IC50", "setting": "HCV replicon 1AQ30D; [2]", "result": 0.03, "unit": "nM"}, {"measurement": "IC50", "setting": "HCV replicon 1B; Hepatitis C virus, replicon 1B", "result": 0.0015, "unit": "nM"}]}
